# Values joined by “and” are separate entries in the source; they are usually repeats but may differ in a detail not shown here. Equal values may be shown once.
# How the values were obtained:
# [1] = Stability of crystal forms under ambient conditions; assay type: physicochemical
# dermal angiogenesis = test: Matrigel assay in domestic pigs; assay type: in vivo
# Procedure: (§1) Vascular endothelial growth factors (VEGFs) have angiogenic and vascular permeability-promoting activities in vitro and in vivo. […] Young domestic pigs were used because pig skin is very similar to human skin in architecture and permeability for xenobiotics. Inhibition of dermal angiogenesis related to the agent of the invention was tested with an “matrigel” assay which was developed for studies in pigs; inhibition of vascular permeability in the skin with a modified Miles assay. With matrigel implants into which endothelial cells immigrate to form new vessels anti-angiogenic effects of applied test articles can be assessed in vivo; with the Miles assay, extravasation of Evans blue-labeled albumin is measured after VEGF-induced vascular leakage.
# Method: Test areas on both paramedian ventral abdominal sides of 16-18 kg weighing domestic pigs were topically treated with 0.5% 6-(6-hydroxymethyl-pyrimidin-4-yloxy)-naphthalene-1-carboxylic acid (3-trifluoromethyl-phenyl)-amide or the vehicle (ethanol/propylene glycol 3/7) alone. Treatment was performed twice daily on days 1-4. On day 2, 100 μl matrigel, loaded with the angiogenic factors […] VEGF-165 and 40 U/ml heparin were injected intradermally at 10 different sites of the treated areas. On day 5, the animals were sacrificed and 8 mm punches from the injection sites collected, the subcutaneous fatty tissue removed, the hemorrhagic plugs carefully dissected and weighed. Thereafter, the samples were digested with dispase and single cell suspensions prepared. The isolated cells were stained with the endothelial cell marker CD31 or isotype controls and analyzed with FACS after gating for endothelial cells.
# [2] = Solubility of the agent in hydrophilic and hydrophobic media; assay type: physicochemical; details: hydrophilic and hydrophobic media (aqueous and oily media)
# [3] = tested on: VEGF-induced extravasation; test: Miles assay in domestic pigs; assay type: in vivo
# Procedure: as §1
# Method: Test areas of 5×20 cm on both paramedian ventral abdominal sides of 16-18 kg weighing domestic pigs were topically treated with 1 ml of 0.8% 6-(6-hydroxymethyl-pyrimidin-4-yloxy)-naphthalene-1-carboxylic acid (3-trifluoromethyl-phenyl)-amide trice (30, 7 and 3 hrs prior to elicitation of vascular leakage with VEGF). […] Evans blue was extracted from the biopsies with 0.5 ml formamide and the concentration of Evans blue in the supernatants was measured photometrically. […]
# [4] = 0.5% in ethanol:propylene glycol 3/7, topical twice daily days 1-4, plugs excised day 5
stability of the modification (in words) [1],solubility properties (in words) [2],SMILES,"difference in CD31+ cell number vs vehicle-treated sites (dermal angiogenesis; 0.5% epicutaneously, gated on endothelial cells) [%]","plug weight less than vehicle-treated sites (dermal angiogenesis; 0.5% epicutaneously, vs vehicle) [%]","Cell counts (CD31+)/μl, gated on endothelial cells (dermal angiogenesis; [4]) [µL⁻¹]",Weight (mg) of excised plugs (dermal angiogenesis; [4]),"inhibition of VEGF-induced extravasation ([3]; 0.8% agent topically 30, 7 and 3 hrs before VEGF 165, vs placebo) [%]","Evans blue concentration (μg/ml tissue extract) ([3]; 0.8% agent, 1 ml topically 30, 7 and 3 hrs before VEGF 165 injection, biopsies 30 min after challenge)"
particularly stable modification,,"O.O=C(Nc1cccc(C(F)(F)F)c1)c1cccc2cc(Oc3cc(CO)ncn3)ccc12.O=C(Nc1cccc(C(F)(F)F)c1)c1cccc2cc(Oc3cc(CO)ncn3)ccc12 [Crystal form B, 6-(6-Hydroxymethyl-pyrimidin-4-yloxy)-naphthalene-1-carboxylic acid (3-trifluoromethyl-phenyl)-amide hemihydrate, modification B]",,,,,,
,very poor solubility properties,"O=C(Nc1cccc(C(F)(F)F)c1)c1cccc2cc(Oc3cc(CO)ncn3)ccc12 [agent of the invention, 6-(6-hydroxymethyl-pyrimidin-4-yloxy)-naphthalene-1-carboxylic acid (3-trifluoromethyl-phenyl)-amide]",66,19,353,88 mg and 87.8 mg,24,1.26 (0.13)++ μg/ml tissue extract

# — patent publication US20110112121A1, “Pharmaceutical Compositions and Solid Forms” (priority 2009, published 2011)
